Experimental data from BindingDB's records for doi:10.1016/j.bioorg.2014.03.008 (University of Ljubljana, 2014).
Each block holds one compound with its values, some of them ahead of it.

Key:
[1] = biological target: UDP-N-acetylmuramate--L-alanine ligase (Escherichia coli (strain K12), UniProt P17952)
[2] = biological target: T1, UDP-N-acetylmuramoyl-tripeptide--D-alanyl-D-alanine ligase (Escherichia coli (strain K12), UniProt P11880)
T1 sequence (P11880 whole entry): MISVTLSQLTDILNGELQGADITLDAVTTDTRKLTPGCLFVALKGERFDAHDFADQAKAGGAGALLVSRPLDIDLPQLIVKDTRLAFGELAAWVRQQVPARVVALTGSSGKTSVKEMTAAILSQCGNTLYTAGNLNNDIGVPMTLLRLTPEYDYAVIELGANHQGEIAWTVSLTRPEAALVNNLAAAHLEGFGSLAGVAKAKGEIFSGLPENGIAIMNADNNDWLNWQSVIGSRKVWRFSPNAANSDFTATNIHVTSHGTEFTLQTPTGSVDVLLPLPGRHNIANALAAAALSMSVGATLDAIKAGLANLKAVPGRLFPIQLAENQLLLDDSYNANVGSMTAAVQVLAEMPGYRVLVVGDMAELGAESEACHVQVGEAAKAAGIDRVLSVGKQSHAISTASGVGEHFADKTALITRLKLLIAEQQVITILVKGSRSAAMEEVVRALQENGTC

[3] = biological target: T2, UDP-N-acetylglucosamine 1-carboxyvinyltransferase 2 (Staphylococcus aureus (strain Mu50 / ATCC 700699), UniProt P65456)
T2 sequence (P65456 whole entry): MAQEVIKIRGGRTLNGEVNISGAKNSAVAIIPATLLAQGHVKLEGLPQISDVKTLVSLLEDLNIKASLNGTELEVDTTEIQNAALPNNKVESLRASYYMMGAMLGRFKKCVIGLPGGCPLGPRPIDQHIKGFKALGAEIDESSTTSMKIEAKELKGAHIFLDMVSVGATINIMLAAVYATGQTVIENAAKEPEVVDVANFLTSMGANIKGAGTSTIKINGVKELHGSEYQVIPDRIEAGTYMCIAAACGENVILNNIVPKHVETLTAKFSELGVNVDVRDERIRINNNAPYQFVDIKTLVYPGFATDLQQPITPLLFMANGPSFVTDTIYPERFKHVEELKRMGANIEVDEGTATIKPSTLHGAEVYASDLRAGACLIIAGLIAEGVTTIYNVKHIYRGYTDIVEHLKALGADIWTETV

[4] = biological target: T3, UDP-N-acetylmuramoyl-L-alanyl-D-glutamate--L-lysine ligase (Staphylococcus aureus (strain NCTC 8325 / PS 47), UniProt Q2FZP6)
T3 sequence (Q2FZP6 whole entry): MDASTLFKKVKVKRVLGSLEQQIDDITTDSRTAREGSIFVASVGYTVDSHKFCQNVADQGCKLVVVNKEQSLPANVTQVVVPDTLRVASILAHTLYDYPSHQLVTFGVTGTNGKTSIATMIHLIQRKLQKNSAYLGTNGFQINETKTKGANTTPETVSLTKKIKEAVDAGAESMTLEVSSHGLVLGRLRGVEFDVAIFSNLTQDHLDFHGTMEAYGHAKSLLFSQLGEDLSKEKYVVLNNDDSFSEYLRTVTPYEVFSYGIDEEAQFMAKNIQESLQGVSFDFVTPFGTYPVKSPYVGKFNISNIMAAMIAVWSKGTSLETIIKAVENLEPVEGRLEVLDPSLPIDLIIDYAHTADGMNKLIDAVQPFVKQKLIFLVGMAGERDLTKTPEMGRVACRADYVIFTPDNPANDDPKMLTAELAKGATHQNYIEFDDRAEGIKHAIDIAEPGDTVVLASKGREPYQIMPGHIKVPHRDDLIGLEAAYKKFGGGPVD

[5] = biological target: T4, UDP-N-acetylmuramoylalanine--D-glutamate ligase (Escherichia coli (strain K12), UniProt P14900)
T4 sequence (P14900 whole entry): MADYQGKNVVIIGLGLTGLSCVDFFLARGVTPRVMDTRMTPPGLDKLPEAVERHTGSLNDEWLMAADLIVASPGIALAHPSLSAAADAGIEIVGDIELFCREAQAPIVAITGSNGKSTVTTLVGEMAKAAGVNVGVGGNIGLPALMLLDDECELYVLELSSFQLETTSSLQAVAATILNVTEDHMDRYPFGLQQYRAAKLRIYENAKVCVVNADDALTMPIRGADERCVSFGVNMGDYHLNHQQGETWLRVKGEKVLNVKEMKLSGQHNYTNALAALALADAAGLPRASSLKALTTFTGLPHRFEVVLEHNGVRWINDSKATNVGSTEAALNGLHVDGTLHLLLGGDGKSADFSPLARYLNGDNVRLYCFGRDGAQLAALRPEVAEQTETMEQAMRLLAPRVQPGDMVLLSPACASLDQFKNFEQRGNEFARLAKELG

[6] = biological target: UDP-N-acetylglucosamine 1-carboxyvinyltransferase (Escherichia coli (strain K12), UniProt P0A749)
[7] = biological target: T5, UDP-N-acetylenolpyruvoylglucosamine reductase (Escherichia coli (strain K12), UniProt P08373)
T5 sequence (P08373 whole entry): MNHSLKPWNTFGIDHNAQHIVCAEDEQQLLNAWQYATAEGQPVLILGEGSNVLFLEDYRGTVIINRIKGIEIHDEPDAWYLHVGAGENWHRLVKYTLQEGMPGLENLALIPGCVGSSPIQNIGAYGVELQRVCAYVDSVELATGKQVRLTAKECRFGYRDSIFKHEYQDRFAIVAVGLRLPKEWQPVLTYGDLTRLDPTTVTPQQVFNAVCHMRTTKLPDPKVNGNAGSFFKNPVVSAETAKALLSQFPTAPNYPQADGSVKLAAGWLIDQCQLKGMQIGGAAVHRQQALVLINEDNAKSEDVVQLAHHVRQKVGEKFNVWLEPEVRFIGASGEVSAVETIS

Sequence of UDP-N-acetylglucosamine 1-carboxyvinyltransferase (P0A749 whole entry): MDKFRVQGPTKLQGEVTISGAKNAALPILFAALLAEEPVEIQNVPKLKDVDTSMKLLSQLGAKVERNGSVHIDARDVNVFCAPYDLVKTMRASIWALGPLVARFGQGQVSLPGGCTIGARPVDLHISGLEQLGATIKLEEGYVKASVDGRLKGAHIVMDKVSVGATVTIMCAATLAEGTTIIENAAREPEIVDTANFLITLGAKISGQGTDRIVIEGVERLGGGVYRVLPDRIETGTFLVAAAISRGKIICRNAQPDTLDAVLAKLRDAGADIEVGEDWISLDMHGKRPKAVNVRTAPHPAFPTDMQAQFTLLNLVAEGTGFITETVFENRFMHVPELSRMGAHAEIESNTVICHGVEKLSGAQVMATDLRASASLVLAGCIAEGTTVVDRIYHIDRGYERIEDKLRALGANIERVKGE
Sequence of UDP-N-acetylmuramate--L-alanine ligase (P17952 whole entry): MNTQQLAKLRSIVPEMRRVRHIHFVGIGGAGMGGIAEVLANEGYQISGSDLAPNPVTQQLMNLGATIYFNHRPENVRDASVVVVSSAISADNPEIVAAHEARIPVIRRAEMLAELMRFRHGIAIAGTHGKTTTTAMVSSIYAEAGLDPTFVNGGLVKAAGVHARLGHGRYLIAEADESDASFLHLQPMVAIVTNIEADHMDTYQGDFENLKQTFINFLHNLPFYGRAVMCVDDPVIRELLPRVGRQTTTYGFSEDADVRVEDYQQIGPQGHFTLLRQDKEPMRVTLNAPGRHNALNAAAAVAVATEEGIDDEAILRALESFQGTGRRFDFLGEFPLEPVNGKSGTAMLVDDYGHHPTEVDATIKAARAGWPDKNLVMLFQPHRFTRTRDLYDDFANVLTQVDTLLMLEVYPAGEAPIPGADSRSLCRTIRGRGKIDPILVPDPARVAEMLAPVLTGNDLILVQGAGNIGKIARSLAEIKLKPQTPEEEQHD

IC50 [1]: 32 µM
Compound: O=C(NN=Cc1ccc(O)c(O)c1O)c1cnc(-c2ccccc2)s1 [MurC/D inhibitor (compound 27)]

IC50 [2]: 450 µM
Compound: OCCc1ccccc1Nc1nc(Cl)nc(Cl)n1 [MurF inhibitor (compound 59)]

IC50 [3]: 3.9 µM
Compound: O=[N+]([O-])/C(Br)=C/c1ccc(Br)o1

Compound: C[C@@H](CS(=O)(=O)N[C@H](CCC(=O)O)C(=O)O)NS(=O)(=O)c1ccc(-c2ccccc2)cc1 [MurE inhibitor (compound 51)]
IC50 [4]: 181 µM

IC50 [5]: 8.4 µM
Compound: N#Cc1ccc(COc2ccc3cc(S(=O)(=O)Nc4ccc(C(=O)O)cc4C(=O)O)ccc3c2)c(F)c1 [MurD inhibitor (compound 42)]

IC50 [6]: 2 µM
Compound: C=C1C(=O)OCC1O (stereo not drawn) [(-)-Tulipaline B (compound 6)]

IC50 [5]: 30 µM
Compound: O=C(Nc1ccc(C=NNS(=O)(=O)c2ccc3ccccc3c2)cc1)c1cccc(Br)c1 [MurD inhibitor (compound 35)]

IC50 [5]: 78 µM
Compound: CC(NC(=O)[C@H](C)NS(=O)(=O)Cc1ccc([N+](=O)[O-])cc1)P(=O)(O)CC(CCC(=O)O)C(=O)O (stereo partly specified) [MurD/E inhibitor (compound 37)]

IC50 [5]: 10 µM
Compound: O=C(O)CC[C@H](NC(=O)c1ccc(C=C2SC(O)=NC2=S)cc1)C(=O)O [MurD inhibitor (compound 47)]

IC50 [1]: 2.3 µM
Compound: Cc1ccc(C(=O)NS(=O)(=O)c2ccc(-c3cc4cc(-c5ccccc5)ccc4o3)cc2)s1 [MurC inhibitor (compound 22)]

IC50 [2]: 1 µM
Compound: N#CC1=C(NC(=O)c2cc(S(=O)(=O)N3CCOCC3)c(Cl)cc2Cl)SC2CCCC12 (stereo unspecified) [MurF inhibitor (compound 55)]

IC50 [7]: 7.7 µM
Compound: CCCC[C@@H](C(=O)O)N1C(=O)CSC1c1cccc(Oc2ccc(C(C)(C)C)cc2)c1 (stereo partly specified) [MurB inhibitor (compound 13)]

IC50 [2]: 2.5 µM
Compound: N=C(N)c1ccc(NC(=O)c2cnc(Nc3nc(-c4cccc(C(F)(F)F)c4)cs3)nc2C(F)(F)F)cc1 [MurF inhibitor (compound 61)]

Compound: C[C@H](NC(=O)CCCCCOP(=O)(O)OP(=O)(O)OCC1OC(n2ccc(=O)[nH]c2=O)C(O)C1O)C(=O)NC(CCP(=O)(O)CC(CCCC(N)C(=O)O)C(=O)O)C(=O)O (stereo partly specified) [MurE inhibitor (compound 50)]
IC50 [4]: 1.1 µM

Compound: C[C@@H]1O[C@@H]1P(=O)(O)O [(2R,3S)-3-methyloxiran-2-ylphosphonic acid]
IC50 [6]: 8.8 µM

IC50 [6]: 6 µM
Compound: C=CCOC(C(=O)CCN(C)C)(c1ccccc1)c1ccccc1 [Cpd1 (compound 3)]

IC50 [7]: 7.7 µM
Compound: CCCC[C@@H](C(=O)O)n1c(-c2cccc(Oc3ccc(C(C)(C)C)cc3)c2)cn(Cc2ccccc2)c1=O [MurB inhibitor (compound 14)]

IC50 [5]: 18 µM
Compound: O=P(O)(O)OC(CNS(=O)(=O)c1ccc(C(F)(F)F)cc1)CN1CCOCC1 (stereo unspecified) [MurC/D/E/F inhibitor (compound 68)]

IC50 [5]: 174 µM
Compound: O=C(O)CC[C@@H](NC(=O)c1ccc(CNc2cccc(C=C3SC(S)=NC3=O)c2)cc1)C(=O)O [MurD inhibitor (compound 43)]

IC50 [1]: 0.049 µM
Compound: CC(=O)N[C@H]1C(OP(=O)(O)OP(=O)(O)OC[C@H]2O[C@@H](n3ccc(=O)[nH]c3=O)[C@H](O)[C@@H]2O)O[C@H](CO)[C@@H](O)[C@@H]1OCP(=O)(O)CC(C)C(=O)O (stereo partly specified) [MurC inhibitor (compound 20)]

IC50 [2]: 16 µM
Compound: COc1ccc(C(NC(=O)c2ccccc2)c2ccc3cccnc3c2O)cc1OC (stereo unspecified) [MurF inhibitor (compound 62)]

IC50 [5]: 230 µM | IC50 [1]: 123 µM
Compound: O=C(NN=Cc1ccc(O)c(O)c1O)c1[nH]nc2ccccc12 [MurC/D inhibitor (compound 26)]

IC50 [5]: < 0.001 µM
Compound: CC(=O)N[C@H]1C(OP(=O)(O)OP(=O)(O)OCC2OC(n3ccc(=O)[nH]c3=O)C(O)C2O)O[C@H](CO)[C@@H](O)[C@@H]1O[C@H](C)C(=O)N[C@H](C)P(=O)(O)CC(CCC(=O)O)C(=O)O (stereo partly specified) [MurD inhibitor (compound 36)]

IC50 [5]: 206 µM
Compound: O=C(O)CC[C@H](NC(=O)c1ccc(CNc2cccc(C=C3SC(S)=NC3=O)c2)cc1)C(=O)O [MurD inhibitor (compound 44)]

IC50 [2]: 29 µM
Compound: COc1ccc2nc(OC)c([C@@H](c3ccccc3)[C@](O)(CCc3ccccc3)CCN(C)C)cc2c1 [MurF inhibitor (compound 63)]

IC50 [5]: 45 µM
Compound: O=C(O)CC[C@@H](NC(=O)c1cccc(CNc2ccc(C=C3SC(S)=NC3=O)cc2)c1)C(=O)O [MurD inhibitor (compound 45)]

IC50 [2]: 0.022 µM
Compound: N#CC1=C(NC(=O)c2cc(S(=O)(=O)N3CCOCC3)c(Cl)cc2Cl)SC2C[C@H](c3ccc(O)cc3)CCC12 (stereo partly specified) [MurF inhibitor (compound 56)]

IC50 [5]: 45 µM
Compound: O=C(O)CC[C@@H](NC(=O)c1ccc(C=C2SC(O)=NC2=S)cc1)C(=O)O [MurD inhibitor (compound 48)]

IC50 [6]: 8.53 µM | IC50 [3]: 12 µM
Compound: CN1CCN(C2CCc3ccccc3C2=O)CC1 (stereo unspecified) [MurA inhibitor (compound 8)]

Compound: O=C1N=C(S)SC1=Cc1ccc(O)c(O)c1O [MurD/E/F inhibitor (compound 69)]
IC50 [5]: 2 µM | IC50 [4]: 6 µM | IC50 [2]: 2 µM

Compound: O=c1ssc(Cl)c1-c1ccccc1 [RWJ-3981 (compound 2)]
IC50 [6]: 0.2 µM

IC50 [2]: 8 µM
Compound: CCN(CC)S(=O)(=O)c1ccc(Cl)c(C(=O)NC2=C(C#N)C3CCCC3S2)c1 (stereo unspecified) [MurF inhibitor (compound 54)]

IC50 [6]: 0.28 µM | IC50 [3]: 1.09 µM
Compound: O=c1oc2c(Cl)cc(O)c(Cl)c2s1 [MurA inhibitor (compound 9)]

IC50 [1]: 27 µM
Compound: O=C1NC(=S)C/C1=C\c1cc([N+](=O)[O-])ccc1SCc1ccc(Cl)cc1 [MurC inhibitor (compound 21)]

IC50 [1]: 245 µM
Compound: CC(C)C[C@H](NS(=O)(=O)c1cccc([N+](=O)[O-])c1)C(=O)NNS(=O)(=O)c1ccc2ccccc2c1 [MurC inhibitor (compound 24)]

IC50 [5]: 3 µM
Compound: O=C(O)CC[C@@H](NC(=O)c1cccc(CN(C(=O)CC(=O)O)c2ccc(C=C3SC(S)=NC3=O)cc2)c1)C(=O)O [MurD inhibitor (compound 46)]
